For 14 molecules, IC50 results are on record in BindingDB's records for doi:10.7270/Q2NC5ZS3 (Burnham Center For Chemical Genomics, 2012).

This test concerns the target T1, Corticotropin-releasing factor-binding protein (Homo sapiens, UniProt P24387).
T1 sequence (P24387 whole entry): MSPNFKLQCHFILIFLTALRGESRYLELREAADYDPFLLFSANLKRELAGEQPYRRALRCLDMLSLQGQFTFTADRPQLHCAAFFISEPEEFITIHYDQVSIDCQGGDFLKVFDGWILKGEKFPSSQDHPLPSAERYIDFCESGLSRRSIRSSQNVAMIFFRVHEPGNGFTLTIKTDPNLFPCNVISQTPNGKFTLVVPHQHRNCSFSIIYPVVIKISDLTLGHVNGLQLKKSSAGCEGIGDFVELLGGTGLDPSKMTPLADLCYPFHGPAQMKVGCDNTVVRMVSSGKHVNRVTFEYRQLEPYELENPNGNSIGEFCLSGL
On to `Cc1ccc(S(=O)(=O)N(CC(=O)NNC2=c3ccccc3=NC2=O)c2ccc(C)c(C)c2)cc1` [SMR000207608], for which the concentration for half-maximal inhibition (IC50) – broadly, the concentration that gives 50% inhibition – is above 20 µM.
To `COc1ccc(/C=N/OCC(=O)NNC2=c3cc(Br)ccc3=NC2=O)cc1` [MLS000587830] belongs above 20 µM; to `N#CC(C(=O)Cc1cccc2ccccc12)c1nc2ccccc2s1` (centres undefined) [(2Z)-2-(3H-1,3-benzothiazol-2-ylidene)-4-naphthalen-1-yl-3-oxobutanenitrile], 11.3 µM.
With `O=C(O)c1ccc(CN=Nc2cccc(C(F)(F)F)c2)cc1` the figure was above 20 µM.
The molecule `N#CC(C(=O)COc1ccc(Cl)cc1)c1nc2ccccc2s1` (centres undefined) registered an IC50 above 20 µM.
In the case of `COC(=O)c1ccc(C(=O)C(C#N)c2nc3ccccc3s2)cc1` (centres undefined) [4-[(2Z)-2-(3H-1,3-benzothiazol-2-ylidene)-2-cyano-1-oxoethyl]benzoic acid methyl ester], the IC50 is above 20 µM.
The molecule `Cc1ccc(-n2[nH]c(C)c(CN=Nc3ccc([N+](=O)[O-])cc3[N+](=O)[O-])c2=O)cc1` [SMR000171521] returned an IC50 of 15.5 µM.
To `O=NCc1ccc(Oc2ccc(F)cc2)c([N+](=O)[O-])c1` [N-[[4-(4-fluorophenoxy)-3-nitrophenyl]methylidene]hydroxylamine] belongs 17.5 µM; to `Cn1c(O)c(N=Nc2ccc([N+](=O)[O-])cc2)sc1=S` [MLS002608645], 1 µM.
With `COc1ccc(C(C)N=Nc2ccc([N+](=O)[O-])cc2S(=O)(=O)Nc2ccccc2C(=O)O)c(OC)c1` (centres undefined) [MLS002249507] the figure was 9.4 µM; with `Cc1cc(=O)oc2c1ccc1oc(C(N=O)c3ccccc3)c(C)c12` (centres undefined) [4,9-dimethyl-8-(N-oxidanyl-C-phenyl-carbonimidoyl)furo[2,3-h]chromen-2-one], above 20 µM.
In turn, `Cc1ccc2nc(N3C(=O)C(=O)C(C(=O)c4ccc(C)o4)C3c3cccc(O)c3)sc2c1` (centres undefined) [4-hydroxy-2-(3-hydroxyphenyl)-1-(6-methyl-1,3-benzothiazol-2-yl)-3-(5-methylfuran-2-carbonyl)-2H-pyrrol-5-one] gave an IC50 of 10.4 µM. In other words, the double-digit micromolar range.
The molecule `CN1c2ccccc2C(=O)C(C(=S)Nc2ccc(Cl)cc2)S1(=O)=O` (centres undefined) [N-(4-chlorophenyl)-4-hydroxy-1-methyl-2,2-dioxo-1,2-dihydro-2lambda~6~,1-benzothiazine-3-carbothioamide] gave a concentration for half-maximal inhibition (IC50) above 20 µM.
To `Cc1ccc2nc(N3C(=O)C(=O)C(C(=O)c4ccco4)C3c3cccc(O)c3)sc2c1` (centres undefined) belongs above 20 µM.
